From BindingDB's records for patent US12351556 (Inserm (Institut National De La Sante Et De La Recherche …, 2025)

Biological target: Mitogen-activated protein kinase 14 (Homo sapiens, UniProt Q16539)
Assay: In Vitro Affinity Assay
Source text: Not found

Sequence of Mitogen-activated protein kinase 14 (Q16539 whole entry): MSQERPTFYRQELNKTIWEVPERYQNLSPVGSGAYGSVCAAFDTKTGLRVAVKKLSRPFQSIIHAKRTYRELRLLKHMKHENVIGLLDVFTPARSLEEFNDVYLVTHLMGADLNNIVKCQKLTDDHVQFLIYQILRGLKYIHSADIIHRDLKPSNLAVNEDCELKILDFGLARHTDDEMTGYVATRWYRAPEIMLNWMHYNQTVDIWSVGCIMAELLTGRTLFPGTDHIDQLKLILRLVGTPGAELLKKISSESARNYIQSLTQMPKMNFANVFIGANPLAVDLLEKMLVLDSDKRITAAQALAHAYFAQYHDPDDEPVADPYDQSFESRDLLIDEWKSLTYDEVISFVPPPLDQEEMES

SMILES | IC50 [µM]
COc1cccc(NC2=CNC(=O)C(c3cccc4[nH]ccc34)C2)c1 (stereo not drawn) [US12351556, Compound 122] | 5.53
O=C1NCC(NC2=CC(Br)CC=C2)C=C1c1cccc2[nH]ccc12 (stereo not drawn) [US12351556, Compound 142] | 0.66
O=C1NCC(Nc2ccc(F)cc2)C=C1c1cccc2[nH]ccc12 (stereo not drawn) [US12351556, Compound 120] | 0.43
O=C1NCC(Nc2ccc(Br)cc2)C=C1c1cccc2[nH]ccc12 (stereo not drawn) [US12351556, Compound 143] | 2.35
O=C1NCC(Nc2ccccc2F)C=C1c1cccc2[nH]ccc12 (stereo not drawn) [US12351556, Compound 118] | 0.23
O=C1NC=C(Nc2ccccc2)CC1c1cccc2[nH]ccc12 (stereo not drawn) [US12351556, Compound 67] | 3.03
O=C1NCC(Nc2ccccc2Br)C=C1c1cccc2[nH]ccc12 (stereo not drawn) [US12351556, Compound 141] | 2.72
O=C1NC=C(Nc2ccccc2)CC1c1ccccc1Br (stereo not drawn) [US12351556, Compound 69] | 1.46
O=C1NCC(NC2=CC(O)CC=C2)C=C1c1cccc2[nH]ccc12 (stereo not drawn) [US12351556, Compound 134] | 1.04
Cc1ccccc1NC1=CNC(=O)C(c2cccc3[nH]ccc23)C1 (stereo not drawn) [US12351556, Compound 130] | 1.06
O=C1NCC(Nc2ccc(F)cc2)C=C1c1cccc2[nH]ccc12 (stereo not drawn) [US12351556, Compound 119] | 1.42
COc1ccc(NC2=CNC(=O)C(c3cccc4[nH]ccc34)C2)cc1 (stereo not drawn) [US12351556, Compound 123] | 3.67
COc1ccccc1NC1=CNC(=O)C(c2cccc3[nH]ccc23)C1 (stereo not drawn) [US12351556, Compound 121] | 5.25
